Values belong to the compound of their own block, whether it stands above or below them.
Assays:
[1] = biological target: Tyk2 kinase domain (JH1) (Homo sapiens (Human), UniProt P29597); experiment: Tyk2 Radioactive Kinase Assay; assay type: biochemical; details: ATP 10 μM
Procedure: (§1) The Tyk2 and JAK2 radioactive kinase assay measures the percent inhibiton at the Tyk2 kinase domain (JH1) and the percent inhibiton at the JAK2 kinase domain (JH1). Results of the assay are expressed as percent inhibition at 10 μM.

[2] = biological target: JAK2 kinase domain (JH1) (Homo sapiens (Human), UniProt O60674); experiment: JAK2 Radioactive Kinase Assay; assay type: biochemical; details: ATP 10 μM
JAK2 kinase domain (JH1), sequence (O60674 849-1124): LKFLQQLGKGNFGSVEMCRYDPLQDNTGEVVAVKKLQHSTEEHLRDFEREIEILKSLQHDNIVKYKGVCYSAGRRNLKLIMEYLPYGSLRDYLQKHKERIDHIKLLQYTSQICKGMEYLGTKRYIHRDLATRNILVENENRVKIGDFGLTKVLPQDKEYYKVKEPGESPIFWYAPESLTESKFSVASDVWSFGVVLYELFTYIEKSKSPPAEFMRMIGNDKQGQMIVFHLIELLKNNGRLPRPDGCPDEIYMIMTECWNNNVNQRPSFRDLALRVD
Procedure: as §1

[3] = test system: IL-12 induced STAT4 phophorylation mediated by Tyk2/JAK2 (heterodimeric complex); experiment: IL-12 Induced pSTAT4 in Human PBMC; assay type: cell-based; details: 1.7 ng/mL IL-12
Excerpt: The IL-12 Induced pSTAT4 assay evaluates the inhibition of IL-12 induced STAT4 phophorylation mediated by Tyk2/JAK2 (heterodimeric complex).

[4] = test system: GM-CSF induced STAT5 phosphorylation mediated by the JAK2/JAK2 homodimeric complex; experiment: GM-CSF Induced pSTAT5 in Human PBMC; details: 20 min, read-out: PBMC_GMCSF_pSTAT5 IC50 (μM), human PBMC, GM-CSF 5 ng/mL for 20 minutes, pSTAT5 by MSD
[5] = biological target: human TYK2 (JH2domain-pseudokinase) (Homo sapiens (Human), UniProt P29597); experiment: TYK2 JH2 Domain Binding Assay (KINOMEscan, DiscoveRx)
human TYK2 (JH2domain-pseudokinase), sequence (P29597 556-888): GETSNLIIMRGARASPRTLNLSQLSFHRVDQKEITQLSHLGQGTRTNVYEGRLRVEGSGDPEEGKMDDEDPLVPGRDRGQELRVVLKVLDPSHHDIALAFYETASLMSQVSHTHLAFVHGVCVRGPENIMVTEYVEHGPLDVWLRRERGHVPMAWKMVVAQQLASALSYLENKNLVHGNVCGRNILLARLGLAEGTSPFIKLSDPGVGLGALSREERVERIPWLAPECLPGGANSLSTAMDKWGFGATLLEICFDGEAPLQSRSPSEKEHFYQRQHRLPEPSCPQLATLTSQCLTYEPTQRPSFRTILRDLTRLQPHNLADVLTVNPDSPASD
Procedure: Binding constants for compounds of the present invention against the JH2 domain were determined by the following protocol for a KINOMEscan® assay (DiscoveRx). A fusion protein of a partial length construct of human TYK2 (JH2domain-pseudokinase) (amino acids G556 to D888 based on reference sequence NP_003322.3) and the DNA binding domain of NFkB was expressed in transiently transfected HEK293 cells. From these HEK 293 cells, extracts were prepared in M-PER extraction buffer (Pierce) in the presence of Protease Inhibitor Cocktail Complete (Roche) and Phosphatase Inhibitor Cocktail Set II (Merck) per manufacturers' instructions. The TYK2(JH2domain-pseudokinase) fusion protein was labeled with a chimeric double-stranded DNA tag containing the NFkB binding site (5′-[…]-3′) fused to an amplicon for qPCR readout, which was added directly to the expression extract (the final concentration of DNA-tag in the binding reaction is 0.1 nM). […]
Extracts were used directly in binding assays without any enzyme purification steps at a ≥10,000-fold overall stock dilution (final DNA-tagged enzyme concentration <0.1 nM). […] Kds were determined using an 11-point 3-fold compound dilution series with three DMSO control points. […]
Kds were determined using an 11-point 3-fold compound dilution series with three DMSO control points. […] The Kds were determined using a compound top concentration of 30,000 nM. […]

Tyk2 kinase domain (JH1), sequence (P29597 897-1176): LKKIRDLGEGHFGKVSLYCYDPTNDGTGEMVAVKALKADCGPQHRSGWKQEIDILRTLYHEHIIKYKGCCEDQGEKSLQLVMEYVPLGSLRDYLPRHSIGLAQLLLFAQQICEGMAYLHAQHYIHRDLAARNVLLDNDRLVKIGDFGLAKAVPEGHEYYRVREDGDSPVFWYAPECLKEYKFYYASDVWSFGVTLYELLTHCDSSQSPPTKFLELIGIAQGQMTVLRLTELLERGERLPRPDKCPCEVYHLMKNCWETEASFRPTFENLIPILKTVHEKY

inhibition at 10 µM ([1]; 10 μM compound): < 50%
inhibition at 10 µM ([2]; 10 μM compound): < 50%
Compound: CNc1cc(Nc2cccnc2OC)nc2c(C(=O)NC3CC4(COC4)C3)cnn12 [I-408]

IC50 [3]: < 100 nM
IC50 [4]: > 12.5 µM
Compound: CNc1cc(Nc2cc(Cl)cn([C@@H]3CCCOC3)c2=O)nc2c(C(=O)N[C@@H]3C[C@@H]3F)cnn12 [I-773]

IC50 [3]: < 100 nM
Compound: CNc1cc(-c2cn([C@H]3CCN(CCF)C3)c3ncccc23)nc2c(C(=O)N[C@@H]3C[C@@H]3F)cnn12 [I-1362]

IC50 [3]: < 100 nM
Compound: CNc1cc(-c2cn(C(C)C)c3ncc(F)cc23)nc2c(C(=O)N[C@H]3CC[C@H]3O)cnn12 [I-1387]

inhibition at 10 µM ([1]; 10 μM compound): < 50%
inhibition at 10 µM ([2]; 10 μM compound): < 50%
Compound: CNc1cc(Nc2cccc([C@@H]3CCCOC3)n2)nc2c(C(=O)N[C@H]3CC[C@@H]3O)cnn12 [I-664]

Kd [5]: < 0.2 nM
inhibition at 10 µM ([1]; compound at 10 μM): < 50%
inhibition at 10 µM ([2]; compound at 10 μM): < 50%
IC50 [4]: > 50 µM
Compound: CNc1cc(Nc2cccn3ccnc23)cc2c(C(=O)N[C@H]3CC[C@@H]3OC)cnn12 [I-1052]

The remaining lines, values behind:

Compound: CNc1cc(Nc2cccn([C@H]3CC[C@H](OC)CC3)c2=O)nc2c(C(=O)N[C@H]3COC[C@H]3O)cnn12 [I-746]
Tyk2 JH1% Inhibition @ 10 μM ([1]; 10 μM compound): A (had a percent inhibition at 10 μM lower than 50)
JAK2 JH1% Inhibition @ 10 μM ([2]; 10 μM compound): A (had a percent inhibition at 10 μM lower than 50)

Compound: CNc1cc(Nc2cccn([C@H]3CC[C@@H](N4CCOCC4)CC3)c2=O)nc2c(C(=O)N[C@H]3C[C@H]3F)cnn12 [I-304]
Tyk2 JH1% Inhibition @ 10 μM ([1]; 10 μM compound): A (had a percent inhibition at 10 μM lower than 50)
JAK2 JH1% Inhibition @ 10 μM ([2]; 10 μM compound): A (had a percent inhibition at 10 μM lower than 50)

Compound: CNc1cc(Nc2cccn([C@H]3CC[C@](C)(OC)CC3)c2=O)nc2c(C(=O)N[C@H]3C[C@H]3F)cnn12 [I-362]
IC50 [3]: < 100 nM
IC50 [4]: > 50 µM

Compound: CNc1cc(Nc2cccn([C@H]3CC[C@@H]3OC)c2=O)nc2c(C(=O)NC3CC3)cnn12 [I-936]
Kd [5]: 0.2 to 1 nM

Reference: patent US11046698B2, “TYK2 inhibitors and uses thereof” (Nimbus Lakshmi, Inc., priority 2017, dated 2021)
